Columns and labels:
[1] = Acute toxicity (LD50) in mice; conditions: mouse, in vivo, oral administration
From the text: In view of the above-described problems, this invention relates to a series of analgesic 5,9-methanocycloocta[b]pyridin-2(H)-one derivatives.
The compounds of Formula I release huperzine A after p.o. administration. The amount of huperzine A released in artificial gastric fluid at various time intervals after administration of (5R,9R,11E)-5-(3-phenylprop-2-en-1-ylideneamino)-11-ethylidene-5,6,9,10-tetrahydro-7-methyl-5,9-methanocycloocta[b]pyridin-2(1H)-one is listed in Table 2. […] Accordingly, (5R,9R,11E)-5-(3-phenylprop-2-en-1-ylideneamino)-11-ethylidene-5,6,9,10-tetrahydro-7-methyl-5,9-methanocycloocta[b]pyridin-2(1H)-one is a pro-drug of huperzine A, and releases huperzine A in a sustained fashion. Sustained release of huperzine A can well explain lower toxicity of compounds of Formula I compared with Huperzine A (see Table 1).

mice = assay: Analgesic effect of intragastric administration on mice measured with hot-plate test; format: in vivo, ICR mice; conditions: x ± s, n = 10; for pain-threshold after administration / pain-threshold before administration: time course; for pain-threshold before administration / pain threshold before administration: baseline
Description: The analgesic effect with a single dose of the compounds represented by Formula I is preliminarily screened at single time point through hot-plate test, with fortanodyn and aspirin as positive controls. All of the compounds are administered intragastrically.
On the basis of preliminary screening results, several representative compounds were selected to test their analgesic duration, and a part of the results is listed in Table 4. The results illustrate that the analgesic duration of most compounds is longer than 2 hours after a single oral administration, and that some of the compounds have analgesic duration lasting longer than 4 hours.
Furthermore, the dose-effect relationship on an analgesic model of two compounds was tested and the results are shown in Table 5.
Analgesic effect of intragastric administration on mice measured with hot-plate test
Female ICR mice, weight 20+2 g, were purchased from Department of Laboratory Animal Science, Beijing University, animal license number: SCXK 2002-0001.
A) Samples: samples were prepared as mixtures with 0.9% NaCl solution for intragastric administration to mice.
B) Fortanodyn: 30 mg/pill (TianJin LiSheng Pharmaceutical Co. Ltd, lot number: 0201001), 1.5 mg/mL solution was prepared with 0.9% NaCl solution for intragastric administration to mice.
1) Hot-plate test on mice was employed. A thermostatic water bath was adjusted at 55±0.5° C., the bottom of metal plates contacted water surface and used as stimuli after heating. The time span(s) from the point when the mouse was placed onto the hot-plate to the time when the mouse started to lick its metapedes was determined as its pain threshold, which was recorded by stopwatch. Female mice with a weight of 20±2 g were used. The pain threshold of every mouse was measured twice before administration, and the qualified mice are the ones whose average pain threshold was less than 30 seconds.
The qualified mice were randomly grouped with 10 mice in each group. The pain threshold before administration was determined as the basic pain threshold. To the medication administration team, drugs of different dose were given through intragastric administration, whereas to the control group, 0.9% NaCl solution was given. The administration volume was 0.2 mL for every 10 g body weight. The pain threshold of each group was measured at 1 hour after administration.
After administration the pain threshold of each group at different time was measured. The experimental data was statistically treated with t-test using SPSS10 statistics software.

[2] = 0.84 mg/kg intragastric, 30 min
[3] = 0.84 mg/kg intragastric, 60 min
[4] = 0.84 mg/kg intragastric, 120 min
[5] = 0.84 mg/kg intragastric, 180 min
[6] = group dosed 0.84 mg/kg intragastric
[7] = Table 3 screening, 0.6 mg/kg intragastric, 1 hour
[8] = Table 3 screening, group dosed 0.6 mg/kg intragastric

Q: Which LD50 [1] does the source give for `C/C=C1\[C@H]2C=C(C)C[C@]1(N)c1ccc(=O)[nH]c1C2` [Example 1, (5R,9R,11E)-5-amino-11-ethylidene-5,6,9,10-tetrahydro-7-methyl-5,9-methanocycloocta[b]pyridin-2(1H)-one, reference compound] here?
A: 3.8 mg/kg

Q: What does the source list for `C/C=C1\[C@H]2C=C(C)C[C@]1(/N=C/C=C/c1ccccc1)c1ccc(=O)[nH]c1C2` [Example 2, (5R,9R,11E)-5-(3-phenylprop-2-en-1-ylideneamino)-11-ethylidene-5,6,9,10-tetrahydro-7-methyl-5,9-methanocycloocta[b]pyridin-2(1H)-one]?
A: LD50 [1]: 26.5 mg/kg; pain-threshold after administration (mice; 0.73 mg/kg intragastric, 30 min): 34.0 ± 11.42 s; pain-threshold after administration (mice; 0.73 mg/kg intragastric, 60 min): 36.5 ± 10.91 s; pain-threshold after administration (mice; 0.73 mg/kg intragastric, 120 min): 29.0 ± 7.83 s; pain-threshold after administration (mice; 0.73 mg/kg intragastric, 180 min): 24.0 ± 5.44 s; pain-threshold after administration (mice; 0.73 mg/kg intragastric, 240 min): 18.3 ± 5.31 s

Q: With `C/C=C1\[C@H]2C=C(C)C[C@]1(/N=C/C=C/c1ccc(Cl)cc1)c1ccc(=O)[nH]c1C2` [Example 14, (5R,9R,11E)-5-(3-(4-chlorophenyl)prop-2-en-1-ylideneamino)-11-ethylidene-5,6,9,10-tetrahydro-7-methyl-5,9-methanocycloocta[b]pyridin-2(1H)-one] as the compound, how does the LD50 [1] read?
A: 35.6 mg/kg

Q: What about the pain-threshold after administration (mice; 0.81 mg/kg intragastric, 30 min) of the same compound?
A: 47.9 ± 12.95 s

Q: What about the pain-threshold after administration (mice; 0.81 mg/kg intragastric, 60 min) of the same compound?
A: 45.9 ± 15.42 s

Q: And the pain-threshold after administration (mice; 0.81 mg/kg intragastric, 120 min)?
A: 31.0 ± 12.04 s

Q: And the pain-threshold after administration (mice; 0.81 mg/kg intragastric, 180 min)?
A: 25.1 ± 8.10 s

Q: And the pain-threshold after administration (mice; 0.81 mg/kg intragastric, 240 min)?
A: 26.2 ± 9.69 s

Q: And the pain-threshold before administration (mice; group dosed 0.81 mg/kg intragastric)?
A: 12.6 ± 4.25 s

Q: With `C/C=C1\[C@H]2C=C(C)C[C@]1(/N=C/C=C/c1ccco1)c1ccc(=O)[nH]c1C2` [Example 21, (5R,9R,11E)-5-(3-(furan-2-yl)prop-2-en-1-ylideneamino)-11-ethylidene-5,6,9,10-tetrahydro-7-methyl-5,9-methanocycloocta[b]pyridin-2(1H)-one] as the compound, how does the “pain threshold after administration” value (mice; dose-effect, 0.42 mg/kg intragastric, 30 min) read?
A: 16.3 ± 4.47 s

Q: What about the “pain threshold after administration” value (mice; dose-effect, 0.42 mg/kg intragastric, 60 min) of the same compound?
A: 16.4 ± 4.03 s

Q: And the “pain threshold after administration” value (mice; dose-effect, 0.42 mg/kg intragastric, 120 min)?
A: 13.2 ± 2.86 s

Q: What about the “pain threshold after administration” value (mice; dose-effect, 0.42 mg/kg intragastric, 180 min) of the same compound?
A: 14.1 ± 1.66 s

Q: And the “pain threshold before administration” value (mice; dose-effect, group dosed 0.42 mg/kg intragastric)?
A: 12.5 ± 2.79 s

Q: And the pain-threshold after administration (mice; 0.71 mg/kg intragastric, 30 min)?
A: 17.2 ± 6.37 s

Q: And the pain-threshold after administration (mice; 0.71 mg/kg intragastric, 60 min)?
A: 21.0 ± 8.77 s

Q: And the pain-threshold after administration (mice; 0.71 mg/kg intragastric, 120 min)?
A: 16.9 ± 8.32 s

Q: And the pain-threshold after administration (mice; 0.71 mg/kg intragastric, 180 min)?
A: 12.9 ± 3.87 s

Q: And the pain-threshold after administration (mice; [2])?
A: 23.3 ± 7.45 s

Q: And the pain-threshold after administration (mice; [3])?
A: 28.1 ± 10.15 s

Q: What about the pain-threshold after administration (mice; [4]) of the same compound?
A: 14.9 ± 5.02 s

Q: What about the pain-threshold after administration (mice; [5]) of the same compound?
A: 13.7 ± 2.98 s

Q: And the pain-threshold before administration (mice; group dosed 0.71 mg/kg intragastric)?
A: 11.9 ± 3.90 s

Q: And the pain-threshold before administration (mice; [6])?
A: 12.3 ± 3.86 s

Q: Which results are given for `C/C=C1\C2C=C(C)CC1(/N=C/C=C/c1ccc3ccccc3c1)c1ccc(=O)[nH]c1C2` [Example 22, (5R,9R,11E)-5-(3-(naphthalen-2-yl)prop-2-en-1-ylideneamino)-11-ethylidene-5,6,9,10-1,7-dimethyl-5,9-methanocycloocta[b]pyridin-2(1H)-one]?
A: pain threshold after administration (mice; [7]): 23.6 ± 4.27 s; pain threshold before administration (mice; [8]): 12.4 ± 4.13 s

Q: With `C/C=C1\C2C=C(C)CC1(/N=C/C=C/c1cccc3ccccc13)c1ccc(=O)[nH]c1C2` [Example 23, (5R,9R,11E)-5-(3-(naphthalen-1-yl)prop-2-en-1-ylideneamino)-11-ethylidene-5,6,9,10-1,7-dimethyl-5,9-methanocycloocta[b]pyridin-2(1H)-one] as the compound, how does the LD50 [1] read?
A: 43.2 mg/kg

Q: And the pain-threshold after administration (mice; [2])?
A: 23.3 ± 7.45 s

Q: And the pain-threshold after administration (mice; [3])?
A: 28.1 ± 10.15 s

Q: And the pain-threshold after administration (mice; [4])?
A: 14.9 ± 5.02 s

Q: What about the pain-threshold after administration (mice; [5]) of the same compound?
A: 13.7 ± 2.98 s

Q: And the pain-threshold before administration (mice; [6])?
A: 12.3 ± 3.86 s

Q: Which “pain threshold after administration” value (mice; [7]) does the source give for `C/C=C1\C2C=C(C)CC1(/N=C/C=C/c1c3ccccc3cc3ccccc13)c1ccc(=O)[nH]c1C2` [Example 26, (5R,9R,11E)-5-(3-(anthracen-9-yl)prop-2-en-1-ylideneamino)-11-ethylidene-5,6,9,10-1,7-dimethyl-5,9-methanocycloocta[b]pyridin-2(1H)-one] here?
A: 20.8 ± 3.60 s

Q: Which “pain threshold after administration” value (mice; [7]) does the source give for `C/C=C1\C2C=C(C)CC1(/N=C\c1ccc(/C=C/C=N/C34CC(C)=CC(Cc5[nH]c(=O)ccc53)/C4=C\C)cc1)c1ccc(=O)[nH]c1C2` (stereo not drawn) [Example 27] here?
A: 21.2 ± 5.53 s

Q: And the “pain threshold before administration” value (mice; [8])?
A: 12.4 ± 3.14 s

Q: Which results are given for `C/C=C1\C2C=C(C)CC1(/N=C\C=C\c1ccc(/C=C/C=N/C34CC(C)=CC(Cc5[nH]c(=O)ccc53)/C4=C\C)cc1)c1ccc(=O)[nH]c1C2` [Example 28]?
A: pain threshold after administration (mice; [7]): 23.4 ± 3.88 s; pain threshold before administration (mice; [8]): 12.6 ± 2.73 s

Reference: patent publication US8053577B2, “Derivatives of 5,9-methanocycloocta[b]pyridin-2-(1H)-one, their preparation and use as analgesics” (priority 2006, dated 2011)
